Measurements from the supplement of paper PMC11451515.

How the values were obtained:
NOMO1 [1] = assay: cell viability relative to DMSO control; higher = less cytotoxic; details: HPLM + 10% dialyzed FBS, 48 h
Procedure, shortened: (§1)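 Viability, reported as a per-plate percentage of DMSO wells with cell-free wells as background, came from CellTiter-Glo One luminescence. Reading took place after 48 h at 37°C. Before that, NOMO1 or SEM (500 cells/well) or P12-Ichikawa (1000 cells/well) leukemia cells, adapted for at least four passages in each medium, were seeded in 1536-well plates (5 μl) and pin-dosed with library compounds in DMSO, 47 μM to 0.79 nM over 11 threefold points.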

SEM cells [2] = assay: as above; details: 48 h
Procedure, shortened: as §1

NOMO1 [3] = assay: AUC of viability dose-response curve (% viability x log10 dose units); higher = less sensitive; details: 48 h
Procedure, shortened: (§2)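 Viability of medium-adapted leukemia cells was measured by CellTiter-Glo One luminescence after 48 h at 37°C with library compounds in DMSO. Doses were 11 threefold steps from 47 μM to 0.79 nM, in 1536-well plates at 500 or 1000 cells/well. Signals were normalised per plate to DMSO and cell-free wells and fitted with a four-parameter log-logistic model on log10 dose. Area under the curve was integrated by trapezoidal rule, with curves exceeding full viability scaled and failed quality-control curves removed.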

P12-Ichikawa = assay: as above; details: 48 h
Procedure, shortened: as §2

SEM cells [4] = assay: as above; details: 48 h
Procedure, shortened: as §2

N#Cc1c(N(CC(=O)[O-])CC(=O)[O-])sc(C(=O)[O-])c1CC(=O)[O-].O.O.O.O.O.O.O.[Sr+2].[Sr+2]
Details	AUC of viability dose-response curve	cell viability [%]
NOMO1 [1], 0.000781 µM	–	113
NOMO1 [1], 0.00234 µM	–	123
NOMO1 [1], 0.00702 µM	–	150
NOMO1 [1], 0.0211 µM	–	130
NOMO1 [1], 0.0632 µM	–	137
NOMO1 [1], 0.19 µM	–	129
NOMO1 [1], 0.569 µM	–	148
NOMO1 [1], 1.71 µM	–	123
NOMO1 [1], 5.12 µM	–	138
NOMO1 [1], 15.4 µM	–	124
NOMO1 [1], 46.1 µM	–	112
NOMO1 [3], HPLM + 10% dialyzed FBS	467	–
NOMO1 [3], RPMI 5 mM glucose + 10% FBS	472	–
NOMO1 [3], RPMI 5 mM glucose + 10% dialyzed FBS	472	–
P12-Ichikawa, HPLM + 10% dialyzed FBS	463	–
P12-Ichikawa, RPMI 5 mM glucose + 10% FBS	458	–
P12-Ichikawa, RPMI 5 mM glucose + 10% dialyzed FBS	456	–
SEM cells [4], HPLM + 10% dialyzed FBS	462	–
SEM cells [4], RPMI 5 mM glucose + 10% FBS	467	–
SEM cells [4], RPMI 5 mM glucose + 10% dialyzed FBS	449	–

cell viability [%], SEM cells [2]
Details	HPLM + 10% dialyzed FBS	RPMI 5 mM glucose + 10% FBS	RPMI 5 mM glucose + 10% dialyzed FBS
0.000781 µM	111	117	111
0.00234 µM	113	124	107
0.00702 µM	122	131	123
0.0211 µM	111	138	121
0.0632 µM	117	149	129
0.19 µM	130	146	131
0.569 µM	127	153	134
1.71 µM	132	132	128
5.12 µM	144	143	112
15.4 µM	103	124	89.3
46.1 µM	87.9	102	67.9

Cc1cccc(-c2n[nH]cc2-c2ccc3ncccc3n2)n1
AUC of viability dose-response curve
Details	HPLM + 10% dialyzed FBS	RPMI 5 mM glucose + 10% FBS	RPMI 5 mM glucose + 10% dialyzed FBS
NOMO1 [3]	447	458	430
SEM cells [4]	459	449	451

CC(C)CC(=O)Nc1n[nH]c2c1CN(C(=O)C1CCN(C)CC1)C2(C)C
Details	AUC of viability dose-response curve	cell viability [%]
NOMO1 [1], 0.000781 µM	–	112
NOMO1 [1], 0.00234 µM	–	154
NOMO1 [1], 0.00702 µM	–	113
NOMO1 [1], 0.0211 µM	–	131
NOMO1 [1], 0.0632 µM	–	85.3
NOMO1 [1], 0.19 µM	–	94.5
NOMO1 [1], 0.569 µM	–	103
NOMO1 [1], 1.71 µM	–	61.4
NOMO1 [1], 5.12 µM	–	71.1
NOMO1 [1], 15.4 µM	–	18.5
NOMO1 [1], 46.1 µM	–	3.76
NOMO1 [3], HPLM + 10% dialyzed FBS	331	–
NOMO1 [3], RPMI 5 mM glucose + 10% FBS	370	–
NOMO1 [3], RPMI 5 mM glucose + 10% dialyzed FBS	325	–
P12-Ichikawa, HPLM + 10% dialyzed FBS	311	–
P12-Ichikawa, RPMI 5 mM glucose + 10% FBS	351	–
P12-Ichikawa, RPMI 5 mM glucose + 10% dialyzed FBS	345	–
SEM cells [4], HPLM + 10% dialyzed FBS	320	–
SEM cells [4], RPMI 5 mM glucose + 10% FBS	338	–
SEM cells [4], RPMI 5 mM glucose + 10% dialyzed FBS	338	–

CC(c1cc2ccccc2s1)N(O)C(N)=O (centres undefined)
SEM cells [2], HPLM + 10% dialyzed FBS
Details	cell viability [%]
0.000781 µM	112
0.00234 µM	130
0.00702 µM	123
0.0211 µM	118
0.0632 µM	129
0.19 µM	136
0.569 µM	132
1.71 µM	120
5.12 µM	119
15.4 µM	116
46.1 µM	73.1

AUC of viability dose-response curve
Details	NOMO1 [3]	P12-Ichikawa	SEM cells [4]
HPLM + 10% dialyzed FBS	474	456	463
RPMI 5 mM glucose + 10% FBS	459	460	459
RPMI 5 mM glucose + 10% dialyzed FBS	425	458	448

CN1CCN2c3ccccc3Cc3ccccc3C2C1 (centres undefined)
AUC of viability dose-response curve
Details	NOMO1 [3]	P12-Ichikawa	SEM cells [4]
HPLM + 10% dialyzed FBS	433	453	467
RPMI 5 mM glucose + 10% FBS	474	441	463
RPMI 5 mM glucose + 10% dialyzed FBS	472	466	453

Nc1ncnc2c1ncn2[C@@H]1O[C@H](CO)[C@@H](O)[C@H]1O
AUC of viability dose-response curve
Details	HPLM + 10% dialyzed FBS	RPMI 5 mM glucose + 10% FBS	RPMI 5 mM glucose + 10% dialyzed FBS
NOMO1 [3]	388	402	397
SEM cells [4]	462	454	463
